Data from article PMC4174574 (Molecular cancer therapeutics, 2013).

Experiments:
[1] = target: T1, Mcl-1 (Homo sapiens, UniProt Q07820); conditions: cited from earlier work
[2] = target: T2, A1/Bfl-1 (Homo sapiens, UniProt Q16548); assay: FP-based competitive binding assay using fluorescent labeled Bid BH3 peptide; conditions: for Ki: read-out: Ki ± SD, A1/Bfl-1, competitive FP assay, Bid BH3 peptide
T2 sequence (Q16548 1-175): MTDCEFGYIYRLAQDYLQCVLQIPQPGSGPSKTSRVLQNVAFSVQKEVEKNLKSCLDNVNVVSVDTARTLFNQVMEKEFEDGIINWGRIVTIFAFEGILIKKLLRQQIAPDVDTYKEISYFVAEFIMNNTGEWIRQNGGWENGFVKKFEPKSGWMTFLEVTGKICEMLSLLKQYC

[3] = target: T3, Bcl-w (Homo sapiens, UniProt Q92843); assay: as above; conditions: for Ki: read-out: Ki ± SD, Bcl-w, competitive FP assay, Bid BH3 peptide
T3 sequence (Q92843 1-193): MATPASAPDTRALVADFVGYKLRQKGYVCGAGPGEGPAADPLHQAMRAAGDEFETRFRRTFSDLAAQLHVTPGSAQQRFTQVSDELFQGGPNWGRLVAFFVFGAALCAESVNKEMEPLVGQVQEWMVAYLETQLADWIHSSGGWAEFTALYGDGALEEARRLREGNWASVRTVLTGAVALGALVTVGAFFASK

[4] = target: cellular Mcl-1 (Homo sapiens, UniProt Q07820); assay: Biotin-labeled Noxa BH3 peptide streptavidin pull-down from 2LMP cell lysate; assay type: binding
[5] = tested on: Panc-1; conditions: read-out: IC50 cell growth inhibition, Panc-1; 4 days treatment
[6] = target: T4, Bcl-xL (Homo sapiens, UniProt Q07817); assay: FP-based competitive binding assay using fluorescent labeled Bid BH3 peptide
[7] = target: T5, Bcl-2 (Homo sapiens, UniProt P10415); conditions: solution competitive SPR, immobilized Bid peptide
[8] = tested on: Panc-1 cells; conditions: Panc-1, 24 h, anti-Bax 6A7
[9] = tested on: BxPC-3 cells; conditions: BxPC-3, 24 h, anti-Bax 6A7
[10] = tested on: MiaPaCa-2; conditions: read-out: IC50 cell growth inhibition, MiaPaCa-2; 4 days treatment
[11] = tested on: BxPC-3 cells; assay: Cell growth inhibition; conditions: BxPC-3 transfected with control siRNA, 3.5 μM, 72 h
[12] = tested on: wild type (WT) murine embryonic fibroblasts (MEF); conditions: 10 μM, 24 h
[13] = target: T1, Mcl-1; assay: FP-based competitive binding assay using fluorescent labeled Bid BH3 peptide
[14] = target: T1, Mcl-1; assay type: binding
[15] = target: Mcl-1/Bax and Mcl-1/Bak in BxPC-3 cells (Homo sapiens, UniProt Q07820); conditions: BxPC-3, 4 μM, 24 h
[16] = tested on: Panc-1 cells; conditions: Panc-1, 24 h treatment
[17] = tested on: BxPC-3 cells; conditions: BxPC-3, 24 h, 3 and 10 μM, densitometry
[18] = tested on: Bax/Bak-deficient (DKO) MEFs; conditions: 10 μM, 24 h
[19] = tested on: Panc-1 cells; assay: Induction of apoptosis, Annexin V/PI double staining flow cytometry; assay type: cell-based, human
[20] = target: T5, Bcl-2; assay: FP-based competitive binding assay using fluorescent labeled Bid BH3 peptide
[21] = tested on: SCID mice; conditions: mouse, in vivo
[22] = Metabolic stability in pooled mice liver microsomes; assay type: in vitro ADME
[23] = tested on: Capan-2; conditions: read-out: IC50 cell growth inhibition, Capan-2; 4 days treatment
[24] = target: T4, Bcl-xL; conditions: solution competitive SPR, immobilized Bid peptide
[25] = tested on: AsPC-1; conditions: read-out: IC50 cell growth inhibition, AsPC-1; 4 days treatment
[26] = tested on: BxPC-3; conditions: read-out: IC50 cell growth inhibition, BxPC-3; 4 days treatment
[27] = tested on: AsPC-1 cells; conditions: AsPC-1, highest tested concentration 20 μM
[28] = tested on: BxPC-3 cells; assay: Induction of apoptosis; conditions: BxPC-3 transfected with control siRNA, 3.5 μM, 72 h
[29] = tested on: BxPC-3 xenograft; assay: BxPC-3 xenograft efficacy in SCID mice; assay type: in vivo; conditions: 60 mg/kg i.v.; for Tumor growth inhibition in comparison with controls: 5 days a week for two weeks

T5 sequence (P10415 whole entry): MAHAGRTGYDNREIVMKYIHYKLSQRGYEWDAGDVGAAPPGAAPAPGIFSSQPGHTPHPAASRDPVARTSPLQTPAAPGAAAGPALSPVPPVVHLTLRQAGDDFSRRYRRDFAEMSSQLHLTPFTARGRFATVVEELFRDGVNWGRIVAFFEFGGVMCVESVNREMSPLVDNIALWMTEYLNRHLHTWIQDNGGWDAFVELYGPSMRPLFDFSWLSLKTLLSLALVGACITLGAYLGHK
T4 sequence (Q07817 whole entry): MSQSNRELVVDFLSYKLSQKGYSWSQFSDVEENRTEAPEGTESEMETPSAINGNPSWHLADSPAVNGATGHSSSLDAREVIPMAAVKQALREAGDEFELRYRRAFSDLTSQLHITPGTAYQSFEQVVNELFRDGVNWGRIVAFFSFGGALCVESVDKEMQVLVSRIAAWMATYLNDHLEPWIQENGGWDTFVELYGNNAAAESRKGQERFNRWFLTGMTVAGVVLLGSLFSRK
cellular Mcl-1, sequence (Q07820 whole entry): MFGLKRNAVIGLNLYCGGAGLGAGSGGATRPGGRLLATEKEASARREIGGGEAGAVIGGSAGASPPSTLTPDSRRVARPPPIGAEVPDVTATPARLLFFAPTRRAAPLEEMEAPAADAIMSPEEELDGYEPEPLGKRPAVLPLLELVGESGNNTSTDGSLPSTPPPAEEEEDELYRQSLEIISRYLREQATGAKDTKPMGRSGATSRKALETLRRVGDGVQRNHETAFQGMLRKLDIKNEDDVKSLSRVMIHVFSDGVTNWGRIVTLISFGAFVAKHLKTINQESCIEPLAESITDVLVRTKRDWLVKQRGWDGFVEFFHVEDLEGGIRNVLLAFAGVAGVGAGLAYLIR
T1 sequence (Q07820 whole entry): as above
Mcl-1/Bax and Mcl-1/Bak in BxPC-3 cells, sequence (Q07820 whole entry): as above

For CN(C)CC[C@H](CSc1ccccc1)Nc1ccc(S(=O)(=O)NC(=O)c2ccc(N3CCN(Cc4ccccc4-c4ccc(Cl)cc4)CC3)cc2)cc1[N+](=O)[O-] [ABT-737], the “Binding to Mcl-1” value [1] is listed as “fails to bind”.

With O=C(O)CSc1cc(NS(=O)(=O)c2cccs2)c2ccccc2c1O [UMI-59] the Ki [2] was 6.14 ± 1 µM, the Ki [3] was 37.5 ± 7.96 µM and the “Disruption of BL-Noxa / cellular Mcl-1 interaction” value [4] was “effectively disrupt the interactions between BL-Noxa and cellular Mcl-1 in a dose dependent manner”.

In the case of O=C(O)CSc1cc(NS(=O)(=O)c2ccc(Br)cc2)c2ccccc2c1O [UMI-77], the IC50 [5] is reported as 4.4 µM, the “Fold lower affinity to A1/Bfl-1 than to Mcl-1” value ([2]; FP Ki ratio) is reported as 11 fold and the Ki [2] is reported as 5.33 ± 1 µM. For the same compound, the “Fold reduced binding to Bcl-xL vs Mcl-1” value ([6]; FP Ki ratio) was “more than 50 fold”, the Ki ([6]; read-out: Ki ± SD, Bcl-xL, competitive FP assay, Bid BH3 peptide) was 33 ± 4.33 µM and the “Fold decreased binding to Bcl-2 vs Mcl-1 (SPR)” value [7] was “more than 30 fold”. For the same compound, the “Concentration from which activated Bax is substantially increased” value [8] was ≥ 5 µM, the “Concentration from which activated Bax is substantially increased” value [9] was ≥ 5 µM and the “Fold decreased binding to Bcl-w vs Mcl-1” value ([3]; FP Ki ratio) was 17 fold. The Ki [3] was 8.19 ± 1.91 µM, the IC50 [10] was 12.5 µM and the Cell growth inhibition [11] was 50%. For the same compound, the “Apoptosis in MEF WT cells” value [12] was “more than 60%”, the “Potency for binding to Mcl-1 relative to 1 (UMI-59)” value ([13]; FP Ki ratio) was “three times higher potency” and the Ki ([13]; read-out: Ki ± SD, Mcl-1, competitive FP assay, Bid BH3 peptide) was 0.49 ± 0.06 µM. For the same compound, the “Fold improved binding affinity to Mcl-1 in comparison with UMI-59 (SPR)” value ([14]; SPR IC50 ratio) was 4 fold, the IC50 ([14]; read-out: IC50, Mcl-1 (SPR), solution competitive SPR, immobilized Bid peptide) was 0.31 µM and the “Endogenous protein-protein interactions of Bax and Bak with Mcl-1” value [15] was “inhibition of the endogenous protein-protein interactions of Bax and Bak with Mcl-1”. The “Concentration from which cytochrome c and Smac are released from mitochondria” value [16] was ≥ 10 µM, the “Cleaved caspase-3 versus DMSO control” value [17] was “statistically significant cleaved caspase-3 versus DMSO control” and the “Apoptotic cells in MEF DKO cells” value [18] was 16%. The Early apoptotic cells ([19]; Panc-1, 5 μM, 24 hours) was 15%, the Early apoptotic cells ([19]; Panc-1, 5 μM, 48 hours) was 21% and the Early apoptotic cells ([19]; Panc-1, 10 μM, 24 hours) was 21%. The Early apoptotic cells ([19]; Panc-1, 10 μM, 48 hours) was 49%, the “Fold reduced binding to Bcl-2 vs Mcl-1” value ([20]; FP Ki ratio) was “more than 50 fold” and the Ki ([20]; read-out: Ki ± SD, Bcl-2, competitive FP assay, Bid BH3 peptide) was 23.8 ± 1.81 µM. The “Histopathology (H&E) of kidney, liver and pancreas” value [21] was “did not cause damage”, the “Microsomal half-life (T1/2)” value [22] was 45 min and the IC50 [23] was 5.5 µM. For the same compound, the “Fold decreased binding to Bcl-xL vs Mcl-1 (SPR)” value [24] was “more than 30 fold”, the IC50 [25] was 16.1 µM and the IC50 [26] was 3.4 µM. For the same compound, the “Concentration from which BL-Noxa / cellular Mcl-1 interaction is blocked” value [4] was ≥ 10 µM, the “Disruption of BL-Noxa / cellular Mcl-1 interaction” value [4] was “effectively disrupt the interactions between BL-Noxa and cellular Mcl-1 in a dose dependent manner” and the “Induction of early apoptosis” value [27] was 8%. The Induction of apoptosis [28] was 7 fold, the “Positive apoptotic cells of tumor sections (TUNEL) vs control group” value [29] was “significantly increased” and the “Survivin in tumor tissue lysates (western blot)” value [29] was “significant decrease of survivin”. The “Tumor growth inhibition in comparison with controls” value ([29]; day 19 (p < 0.0001)) was 65% and the “Tumor growth inhibition in comparison with controls” value ([29]; day 22 (p < 0.003)) was 56%.
